Laboratory results taken from publication PMC6600273, “Design, Synthesis and Anti-Platelet Aggregation Activity Study of Ginkgolide-1,2,3-triazole Derivatives” (Molecules, 2019).

Tested on: PAF-induced platelet aggregation
Experiment: In vitro antiplatelet aggregation activity assay (method of Born), PAF-induced platelet aggregation in platelet-rich plasma
Format: cell-based, New Zealand rabbits
Conditions: for IC50: rabbit PRP, aggregation induced by PAF (10 nM); for antiplatelet aggregation activity, inhibition ratio in primary screening (result in words): inhibition ratio at 50 nM, Figures 3 and 4
Experimental: The in vitro antiplatelet aggregation activity of the newly synthesized 10-substituted 1,2,3-triazole-ginkgolide derivatives was tested by the method of Born. Blood samples (2 mL) from male New Zealand rabbits (2–2.5 kg body weight) were drawn into vacutainer tubes containing 200 μL of 3.2% sodium citrate. Platelet-rich plasma (PRP) was prepared by centrifuging the blood at 250× g for 10 min at 4 °C. The PRP was diluted with platelet-poor plasma obtained by further centrifuging at 3000× g for 10 min. The remaining blood was further centrifuged at 1600× g for 5 min to obtain platelet-poor plasma (PPP) as control group. Platelet aggregation was induced by PAF (10 nM) after incubating platelets with different concentrations of samples, and the maximum rate of platelet aggregation (RPA%) within 5 min was measured with a Helena Platelet aggregometer instrument. The inhibition ratio was calculated according to the following formula:Inhibition ratio (%) = (1−(RPA% of test group) / (RPA% of control group)) × 100%
In primary screening, the activities were expressed directly as inhibition ratio at 50 nM concentration. […] The values shown in the tables were calculated by linear regression from a single experimental curve with no less than four data points, each point being the mean of the percentage inhibition at a given concentration obtained from three independent experiments.

[1] = Oryctolagus cuniculus, Platelet

`Cc1ccccc1-n1cc(COC2C(=O)OC3OC45C(=O)OC6CC(C(C)(C)C)C32C64C(O)C2OC(=O)C(C)C25O)nn1` (stereo not shown) [Compound 5n, 10-O-(1-(2-Methylphenyl)-1H-1,2,3-triazole) ginkgolide B] was tested, and the IC50 [1] was 20.6 ± 2.84 nM and the “antiplatelet aggregation activity, inhibition ratio in primary screening (result in words)” value was “best results”.
In the case of `Cc1cccc(-n2cc(COC3C(=O)OC4OC56C(=O)OC7CC(C(C)(C)C)C43C75C(O)C3OC(=O)C(C)C36O)nn2)c1` (stereo not shown) [Compound 5q, 10-O-(1-(3-Methylphenyl)-1H-1,2,3-triazole) ginkgolide B], the IC50 [1] is reported as 44.3 ± 4.42 nM.
Molecule `C[C@@H]1C(=O)O[C@H]2C[C@@]34[C@H]5C[C@@H](C(C)(C)C)[C@]36[C@@H](OC(=O)[C@@H]6O)O[C@@]4(C(=O)O5)[C@]21O` [1′, ginkgolide A, reference compound] has an IC50 [1] of 580 ± 50.3 nM.
“ginkgolide B [Compound 1, reference compound]” was tested, and the IC50 was 130 ± 20 nM.
In the case of `CC1C(=O)OC2C(O)C34C5CC(C(C)(C)C)C36C(OC(=O)C6OCc3cn(Cc6ccccc6)nn3)OC4(C(=O)O5)C12O` (stereo not shown) [Compound 5ff, 10-O-(1-Benzyl-1H-1,2,3-triazole) ginkgolide B], the IC50 [1] is reported as 5.31 ± 1.84 nM, the “antiplatelet aggregation activity, inhibition ratio in primary screening (result in words)” value is reported as “best results” and the “fold increase in antiplatelet aggregation activity in comparison with natural ginkgolide B (1)” value (ratio of IC50 values vs ginkgolide B) is reported as roughly 20 fold.
With `CC1C(=O)OC2C(O)C34C5CC(C(C)(C)C)C36C(OC(=O)C6OCc3cn(-c6ccccc6)nn3)OC4(C(=O)O5)C12O` (stereo not shown) [Compound 5a, 10-O-(1-Phenyl-1H-1,2,3-triazole) ginkgolide B] the IC50 [1] was 7.74 ± 1.89 nM and the “antiplatelet aggregation activity, inhibition ratio in primary screening (result in words)” value was “best results”.
With ginkgolide C [1″, reference compound] the IC50 was 7540 ± 662 nM.
In the case of `CC1C(=O)OC2C(O)C34C5CC(C(C)(C)C)C36C(OC(=O)C6OCc3cn(-c6ccccc6C#N)nn3)OC4(C(=O)O5)C12O` (stereo not shown) [Compound 5p, 10-O-(1-(2-Cyanophenyl)-1H-1,2,3-triazole) ginkgolide B], the IC50 [1] is reported as 10.2 ± 2.03 nM and the “antiplatelet aggregation activity, inhibition ratio in primary screening (result in words)” value is reported as “best results”.
